# Laboratory results from US10793522B2, “Sulfonamides as inhibitors of the uptake of extracellular citrate” (Boehringer Ingelheim International GmbH, priority 2016, dated 2020).
# pIC50: −log10 of the molar value.
# Target: T1, human GlyT2 (Homo sapiens, UniProt Q9Y345)
# T1 construct: host or cells: HEK293 (HEK293-hGlyT2), cDNA sub-cloned into pcDNA3.1zeo
# T1 sequence (Q9Y345 1-797): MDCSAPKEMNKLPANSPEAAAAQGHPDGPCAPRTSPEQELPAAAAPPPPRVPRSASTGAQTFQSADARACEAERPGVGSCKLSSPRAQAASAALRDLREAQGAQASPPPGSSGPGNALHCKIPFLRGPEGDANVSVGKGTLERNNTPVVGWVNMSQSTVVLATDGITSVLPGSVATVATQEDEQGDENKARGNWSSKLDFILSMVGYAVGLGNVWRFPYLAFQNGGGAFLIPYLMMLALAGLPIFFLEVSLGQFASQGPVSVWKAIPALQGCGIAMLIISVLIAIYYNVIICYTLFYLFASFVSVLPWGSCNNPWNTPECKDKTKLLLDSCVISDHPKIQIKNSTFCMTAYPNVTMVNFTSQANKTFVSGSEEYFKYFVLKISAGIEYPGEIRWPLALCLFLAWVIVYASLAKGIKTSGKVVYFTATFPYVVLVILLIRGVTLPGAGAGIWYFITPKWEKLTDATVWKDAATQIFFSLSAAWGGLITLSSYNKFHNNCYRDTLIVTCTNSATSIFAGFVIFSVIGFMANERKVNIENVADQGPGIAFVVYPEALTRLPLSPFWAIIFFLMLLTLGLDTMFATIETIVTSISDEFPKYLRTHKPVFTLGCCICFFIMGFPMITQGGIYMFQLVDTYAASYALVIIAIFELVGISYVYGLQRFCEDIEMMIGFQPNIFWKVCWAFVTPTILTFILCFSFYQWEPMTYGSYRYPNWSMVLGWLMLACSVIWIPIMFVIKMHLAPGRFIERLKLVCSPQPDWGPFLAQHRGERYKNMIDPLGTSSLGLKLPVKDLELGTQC
# Experiment: Recombinant human GlyT2/3H-glycine uptake assay
# Format: cell-based
# Conditions: HEK293 cells over-expressing human GlyT2; Cytostar-T; 3H-glycine 100 nM; 2 hours
# Excerpt: (6) Recombinant Human GlyT2/^3H-Glycine Uptake Assay
# The human embryonic kidney 293 cell clone (HEK293-hGlyT2) over-expressing the human GlyT2 transporter was generated (the plasmid pCMV6-XL5-hGlyT2 containing the cDNA coding for the human GlyT2 transporter was obtained from Origene, the cDNA for GlyT2 was taken from this plasmid and sub-cloned into pcDNA3.1zeo from Invitrogen).
# Human embryonic kidney 293 (HEK 293) cells are used that stably over-express the human GlyT2 […] which is responsible for the uptake of glycine into these cells.
# The uptake of ^3H-glycine into the HEK 293 hGlyT2 cells is monitored using the Cytostar-T assay. This assay format is based on the imported radioactive glycine brought into proximity with the scintillant contained within the base of the plate by virtue of the biological processes within the cells. The radioactive decay is converted to a light signal based on the integration of the scintillation matrix into the assay plate.
# Method: ^3H-Glycine Uptake Assay
# The hGlyT2 over-expressing HEK 293 cells are cultivated in cell culture medium (DMEM+10% fetal calf serum+100 μg/mL Zeocin). For the assay, the medium of the 90% confluent cultures is removed and the cells are washed with DPBS. The cells are detached by the addition of 2 mL AccuMax and resuspended in 10 mL culture medium. The cell suspension is centrifuged at 1000 U/min for 5 min, the supernatant is removed and cells resuspended in expression medium (MEM (medium without glycine)+10% fetal calf serum) without glycine to 200,000 cells/mL and distributed into the Cytostar-T Scintillating 96-well Microplates (40,000 cells/well; 200 μl/well). The lid covered MTPs are then incubated for 24 hours at 37° C.; 5% CO2.
# The following day, the cell plates are washed once with 200 μL HBSS/Ala buffer (HBSS 10× (+Ca, +Mg) with 5 mM Alanine adjusted to pH 7.4 with NaOH) following a 1 h incubation at 37° C.; 5% CO2, and subsequently 100 μL/well of HBSS/Ala containing 1.2× the concentration of compound in 1.2% DMSO (test range final: 100 μM-100 nM) incubated for 20 min at 37° C. Following the addition of 20 μL/well ^3H-glycine in HBSS/Ala (final ^3H-glycine concentration 100 nM) and an incubation for 2 hours at 37° C., the assay plate is placed into the Topcount NXT HTS and the signal is recorded.
# The IC50 values of the compounds are calculated in IDBS XLfit by sigmoidal dose-response (variable slope).
row,Compound,pIC50
1,O=C(NCc1ccc(Cl)cc1)C1CCN(S(=O)(=O)c2cc(Cl)cc(Cl)c2)CC1 [(I-5)],< 4.00
2,O=C(NCc1ccc(F)cc1)C1CCN(S(=O)(=O)c2cc(Cl)cc(Cl)c2)CC1 [(I-10)],< 4.00
3,O=C(NCc1ccccn1)C1CCN(S(=O)(=O)c2cc(Cl)cc(Cl)c2)CC1 [(I-11)],< 4.00
4,Cc1cnc(CNC(=O)C2CCN(S(=O)(=O)c3cc(Cl)cc(Cl)c3)CC2)s1 [(I-27)],< 4.00
5,Cc1cc(Br)cc(S(=O)(=O)N2CCC(C(=O)NCc3ccccn3)CC2)c1 [(I-61)],< 4.00

# The next lines start with the values.
row,pIC50,Compound
1,< 4.00,O=C(NCc1ccccc1F)C1CCN(S(=O)(=O)c2cc(Cl)cc(Cl)c2)CC1 [(I-2)]
2,< 4.00,Cc1ccc(CNC(=O)C2CCN(S(=O)(=O)c3cc(Cl)cc(Cl)c3)CC2)nc1 [(I-15)]
3,< 4.15,O=C(NCc1ccc(F)cn1)C1CCN(S(=O)(=O)c2cc(Cl)cc(Cl)c2)CC1 [(I-20)]
4,< 4.00,CCOc1cc(Cl)cc(S(=O)(=O)N2CCC(C(=O)NCc3nccs3)CC2)c1 [(I-49)]
5,< 4.00,N#Cc1ccc(CNC(=O)C2CCN(S(=O)(=O)c3cc(Cl)cc(Cl)c3)CC2)cc1 [Example (I-1)]
